Patent EP0655506B1 (priority 1994, dated 1995)
Like-named read-outs stand apart in the source and are kept apart here.

How the values were obtained:
[1] = biological target: T1, E. coli DNA polymerase I (Klenow fragment) (Escherichia coli, UniProt P00582); conditions: cited from earlier work
T1 construct: manganese reduces the discrimination of Klenow fragment against ddATP from 550 to 3.9 fold

[2] = biological target: T2, T7 DNA polymerase mutant T7 C-T5, R D N A K A I I Y G F L Y G (Escherichia phage T7, UniProt P00581, DEL118-145/F524I/T523A); assay: SDS activity gel analysis, incorporation of ddNMP relative to dNMP (Example 2); assay type: biochemical, bacteriophage T7; conditions: renatured enzyme in gel; 1.5 µM 4dNTPs with or without 30 µM ddTTP; 37 °C 4 hr
T2 construct: made in house; host or cells: induced cells of a strain producing E. coli thioredoxin; crude lysate, renatured in gel
Description: (§1) Mutant DNA polymerases are screened for their ability to incorporate dideoxynucleotides by SDS activity gel analysis. The procedure is a modification of that described by Spanos and Hübscher 91 Methods in Enzymology 263, 1983 and Karawya et al. 135 Analytical Biochemistry 318, 1983. Briefly, 10 ml of cells are induced for 4 to 6 hours and then pelleted. The cell pellet is resuspended in 0.3 ml 25 mM Tris HCl, pH 7.0, 5 mM EDTA. 20 µl of the resuspended cells are mixed with 40 µl of a solution of 1% SDS (sodium dodecyl sulfate), 2% mercaptoethanol, 30 % glycerol, 0.04% bromphenol blue, and 100 mM TrisHCl, pH 6.8. The mixtures are incubated at 37 °C for 5 min, and then 20 µl aliquots are loaded in duplicate onto two SDS polyacrylamide gels. The SDS polyacrylamide gels consist of a resolving gel that contains 8% polyacrylamide, 0.27% bisacrylamide, 190 mM TrisHCl, pH 8.8, 0.05% SDS, and 25 µg/ml denatured salmon sperm DNA, and a stacking gel that consists of 5% polyacrylamide, 0.17% bisacrylamide, 150 mM TrisHCl, pH 6.8, and 0.1% SDS. The two gels are electrophoresed at 100 V for 13 hr at a constant temperature of 13 °C in an electrophoresis buffer consisting of 190 mM TrisHCl and pH 8.8, 0.05% SDS.
(§2) After electrophoresis, the gels are washed over 8 hr in 4 changes of 500 ml each of Renaturation Buffer (50 mM Tris.HCl, pH 7.5, 5 mM magnesium acetate, 1 mM dithiothreitol, 40 mM KCI, 400 µg/ml bovine serum albumin, 16% glycerol and 0.95 mM EDTA) at 4 °C.
(§3) The renatured proteins are assayed for DNA polymerase activity by incubating each of the two gels in 6 ml of Renaturation Buffer, 1.5 µM 4dNTPs, 4 µl of [a-^32P]dATP (800 Ci/mmol, 10 mCi/ml), and 80 µg of purified thioredoxin. One of the mixtures also contains 30 µM ddTTP (a 20-fold molar excess over dTTP). The mixtures are incubated for 4 hr at 37 °C (70 °C for 2 hr for thermophilic DNA polymerases).
(§4) After incubation the gels are washed for 8 hr against four changes of 5% trichloracetic acid and 1% sodium pyrophosphate. The gels are then dried and autoradiographed.
(§5) To determine whether a mutant DNA polymerase is discriminating more or less against ddTTP, the intensities of the radioactive bands are compared on the two gels that were incubated in the presence and absence of ddTTP, and the ratio of the signal in the two bands for the unmodified DNA polymerase is compared with the ratio of the signal in the two bands for each of the mutants.

[3] = biological target: T3, T7 DNA polymerase mutant T7 C-T6, R D N A K T F N F G F L Y G (Escherichia phage T7, UniProt P00581, DEL118-145/I525N/Y526F); assay: as above; assay type: biochemical, bacteriophage T7; conditions: renatured enzyme in gel; 1.5 µM 4dNTPs with or without 30 µM ddTTP; 37 °C 4 hr
T3 construct: made in house; host or cells: induced cells of a strain producing E. coli thioredoxin; crude lysate, renatured in gel
Description: as §1, §2, §3, §4, §5

[4] = biological target: T4, T7 DNA polymerase mutant T7 C-T8 (Y526F), R D N A K T F I F G F L Y G (Escherichia phage T7, UniProt P00581, DEL118-145/Y526F); assay: as above; assay type: biochemical, bacteriophage T7
T4 construct: made in house; host or cells: induced cells of a strain producing E. coli thioredoxin; crude lysate, renatured in gel
Description: as §1, §2, §3, §4, §5

[5] = biological target: T5, T7 DNA polymerase, wild type (T7 WT), R D N A K T F I Y G F L Y G (Escherichia phage T7, UniProt P00581, DEL118-145); assay: as above; assay type: biochemical, bacteriophage T7
T5 construct: made in house; host or cells: induced cells of a strain producing E. coli thioredoxin; crude lysate, renatured in gel
Description: as §1, §2, §3, §4, §5

[6] = renatured enzyme in gel, 1.5 µM 4dNTPs with or without 30 µM ddTTP, 37 °C 4 hr

T1 sequence (P00582 324-928): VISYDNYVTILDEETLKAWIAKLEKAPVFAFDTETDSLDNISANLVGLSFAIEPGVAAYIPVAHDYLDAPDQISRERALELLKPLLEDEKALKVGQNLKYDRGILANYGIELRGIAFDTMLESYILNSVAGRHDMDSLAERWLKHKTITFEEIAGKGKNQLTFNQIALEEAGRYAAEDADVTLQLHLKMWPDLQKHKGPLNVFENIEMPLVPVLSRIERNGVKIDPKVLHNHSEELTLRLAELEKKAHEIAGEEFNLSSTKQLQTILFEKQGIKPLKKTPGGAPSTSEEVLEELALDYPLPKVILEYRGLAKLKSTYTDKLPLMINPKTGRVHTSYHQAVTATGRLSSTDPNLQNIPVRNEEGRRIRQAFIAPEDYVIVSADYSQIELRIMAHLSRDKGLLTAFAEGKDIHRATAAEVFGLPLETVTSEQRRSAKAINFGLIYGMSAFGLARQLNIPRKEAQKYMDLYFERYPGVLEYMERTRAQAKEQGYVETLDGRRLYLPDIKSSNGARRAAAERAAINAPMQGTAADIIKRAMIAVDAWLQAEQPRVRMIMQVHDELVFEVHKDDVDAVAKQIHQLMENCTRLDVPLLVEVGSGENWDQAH
T4 sequence (P00581 other isoform, or with tags, fused parts or gaps DEL118-145/Y526F): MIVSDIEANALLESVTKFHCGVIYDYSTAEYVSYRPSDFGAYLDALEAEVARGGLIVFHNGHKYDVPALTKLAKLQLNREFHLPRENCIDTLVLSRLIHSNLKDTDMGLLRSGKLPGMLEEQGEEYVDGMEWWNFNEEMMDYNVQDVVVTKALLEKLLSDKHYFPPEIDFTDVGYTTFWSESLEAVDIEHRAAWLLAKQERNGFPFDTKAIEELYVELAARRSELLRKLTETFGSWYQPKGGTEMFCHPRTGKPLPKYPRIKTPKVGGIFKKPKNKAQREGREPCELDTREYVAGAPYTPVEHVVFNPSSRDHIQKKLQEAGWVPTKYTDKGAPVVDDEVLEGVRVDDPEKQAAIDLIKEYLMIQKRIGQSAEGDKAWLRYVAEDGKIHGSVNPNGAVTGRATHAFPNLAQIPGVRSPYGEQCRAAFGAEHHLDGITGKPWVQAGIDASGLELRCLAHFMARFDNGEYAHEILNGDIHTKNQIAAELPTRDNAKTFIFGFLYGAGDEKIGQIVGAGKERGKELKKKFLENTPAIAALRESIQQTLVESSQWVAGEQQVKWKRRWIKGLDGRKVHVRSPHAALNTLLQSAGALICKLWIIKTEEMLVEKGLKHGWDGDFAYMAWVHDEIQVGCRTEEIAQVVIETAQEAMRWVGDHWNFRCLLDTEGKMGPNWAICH
T4 sequence (P0AA25 2-109, stated change not applied, further chain): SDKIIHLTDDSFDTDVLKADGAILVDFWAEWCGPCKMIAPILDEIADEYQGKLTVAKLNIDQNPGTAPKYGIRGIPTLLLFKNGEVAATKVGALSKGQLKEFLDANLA
T5 sequence (P00581 other isoform, or with tags, fused parts or gaps DEL118-145): as the sequence (P00581 other isoform, or with tags, fused parts or gaps DEL118-145/Y526F) above, with F498Y counted along it
T5 sequence (P0AA25 2-109, stated change not applied, further chain): as the sequence (P0AA25 2-109, stated change not applied, further chain) above
T3 sequence (P0AA25 2-109, stated change not applied): as the sequence (P0AA25 2-109, stated change not applied, further chain) above
T3 sequence (P00581 other isoform, or with tags, fused parts or gaps DEL118-145/I525N/Y526F): as the sequence (P00581 other isoform, or with tags, fused parts or gaps DEL118-145/Y526F) above, with I497N counted along it
T2 sequence (P0AA25 2-109, stated change not applied): as the sequence (P0AA25 2-109, stated change not applied, further chain) above
T2 sequence (P00581 other isoform, or with tags, fused parts or gaps DEL118-145/T523A/F524I): as the sequence (P00581 other isoform, or with tags, fused parts or gaps DEL118-145/Y526F) above, with T495A, F496I, F498Y counted along it

SMILES | discrimination against ddATP ([1]; in the presence of manganese) [fold] | discrimination against ddATP ([1]; magnesium) [fold] | ddNTP Discrimination [2] | ddNTP Discrimination [3] | intensity of the bands in the presence versus the absence of ddTTP ([4]; 30 µM ddTTP (20-fold molar excess over dTTP), 1.5 µM 4dNTPs, within a factor of two) | ddNTP Discrimination [4, 6] | intensity of the bands in the presence of ddTTP relative to the absence of ddTTP ([5]; 30 µM ddTTP (20-fold molar excess over dTTP), 1.5 µM 4dNTPs) [%] | ddNTP Discrimination [5, 6]
Nc1ncnc2c1ncn2[C@H]1CC[C@@H](COP(=O)(O)OP(=O)(O)OP(=O)(O)O)O1 [ddATP] | 3.9 | 550 |  |  |  |  |  | 
Cc1cn([C@H]2CC[C@@H](COP(=O)(O)OP(=O)(O)OP(=O)(O)O)O2)c(=O)[nH]c1=O [ddTTP] |  |  | Low | High | approximately the same intensity | High | < 5 | Low
